Experimental data taken from patent US10021881B2, “Vaporized administration of pesticides” (priority 2016, dated 2018).

System: Botrytis cinerea
Test: In vivo assay of vaporized pyrimethanil to inhibit Botrytis cinerea in strawberries
Conditions: for Gray Mold Severity (0-4): scale 0 no disease to 4 exceptionally high
[1] = 0.03 mg/L, Day 0 (after 3 days at 21° C.)
[2] = 0.03 mg/L, Day 1 (after 3 days at 21° C.)
[3] = 0.03 mg/L, Day 2 (after 3 days at 21° C.)
[4] = 0.03 mg/L, Day 3 (after 3 days at 21° C.)
[5] = 0.1 mg/L, Day 0 (after 3 days at 21° C.)
[6] = 0.1 mg/L, Day 1 (after 3 days at 21° C.)
[7] = 0.1 mg/L, Day 2 (after 3 days at 21° C.)
[8] = 0.1 mg/L, Day 3 (after 3 days at 21° C.)
[9] = 0.3 mg/L, Day 0 (after 3 days at 21° C.)
[10] = 0.3 mg/L, Day 1 (after 3 days at 21° C.)
[11] = 0.3 mg/L, Day 2 (after 3 days at 21° C.)
[12] = 0.3 mg/L, Day 3 (after 3 days at 21° C.)
[13] = 1 mg/L, Day 0 (after 3 days at 21° C.)
[14] = 1 mg/L, Day 1 (after 3 days at 21° C.)
[15] = 1 mg/L, Day 2 (after 3 days at 21° C.)
[16] = 1 mg/L, Day 3 (after 3 days at 21° C.)

Procedure: Eight strawberries (per repetition, in triplicate) were placed in an industry standard clamshell with the stem facing down. […] Clamshells were then placed at the bottom of a 36-L acrylic desiccator chamber in triplicate.
An appropriate amount of pyrimethanil to achieve a final headspace concentration of 1 mg/L, 0.3 mg/L, 0.1 mg/L, or 0.03 mg/L was dissolved in acetone and 100 μL of the solution was pipetted into a small glass tube. This tube was then placed inside a preheated vaporization device (0.5″ OD by 6″ long thermostatically heated copper tube mounted to a 0.5 L/min low flow fan) set at 60° C. for 1 minute to allow the acetone to evaporate, leaving behind the solid crystals of pyrimethanil.
Pyrimethanil was then introduced into the cabinets of the chamber through the bulkhead port by using the vaporization device as described in Example 1 set at 180° C. The chambers were then incubated at 21° C. for three (3) days. After incubation, fruits were evaluated daily for an additional 3 days at 21° C. Fruits were evaluated in order to observe percentage of disease incidence (%) and severity of disease. Disease severity was rated on a scale ranging from 0 to 4, where “0” indicated no disease severity, “1” indicated minimal disease severity, “2” indicated medium disease severity, “3” indicated high disease severity, and “4” indicated exceptionally high disease severity.

Cc1cc(C)nc(Nc2ccccc2)n1 [pyrimethanil, 4,6-Dimethyl-N-phenylpyrimidin-2-amine] was tested, and the “Gray Mold Incidence (%)” value [1] was 79.2%, the “Gray Mold Severity (0-4)” value [1] was 0.8 and the “Gray Mold Incidence (%)” value [2] was 87.5%. The “Gray Mold Severity (0-4)” value [2] was 1.3, the “Gray Mold Incidence (%)” value [3] was 91.7% and the “Gray Mold Severity (0-4)” value [3] was 1.7. The “Gray Mold Incidence (%)” value [4] was 100.0%, the “Gray Mold Severity (0-4)” value [4] was 2.1 and the “Gray Mold Incidence (%)” value [5] was 70.8%. The “Gray Mold Severity (0-4)” value [5] was 0.6, the “Gray Mold Incidence (%)” value [6] was 79.2% and the “Gray Mold Severity (0-4)” value [6] was 0.8. For the same compound, the “Gray Mold Incidence (%)” value [7] was 83.3%, the “Gray Mold Severity (0-4)” value [7] was 1.2 and the “Gray Mold Incidence (%)” value [8] was 100.0%. The “Gray Mold Severity (0-4)” value [8] was 1.7, the “Gray Mold Incidence (%)” value [9] was 66.7% and the “Gray Mold Severity (0-4)” value [9] was 0.4. The “Gray Mold Incidence (%)” value [10] was 75.0%, the “Gray Mold Severity (0-4)” value [10] was 0.5 and the “Gray Mold Incidence (%)” value [11] was 73.8%. The “Gray Mold Severity (0-4)” value [11] was 0.8, the “Gray Mold Incidence (%)” value [12] was 95.8% and the “Gray Mold Severity (0-4)” value [12] was 1.1. The “Gray Mold Incidence (%)” value [13] was 66.7%, the “Gray Mold Severity (0-4)” value [13] was 0.3 and the “Gray Mold Incidence (%)” value [14] was 70.8%. For the same compound, the “Gray Mold Severity (0-4)” value [14] was 0.4, the “Gray Mold Incidence (%)” value [15] was 69.6% and the “Gray Mold Severity (0-4)” value [15] was 0.6. For the same compound, the “Gray Mold Incidence (%)” value [16] was 91.7% and the “Gray Mold Severity (0-4)” value [16] was 1.0.
